# Test results from publication PMC4674085, “Towards Prebiotic Catalytic Amyloids Using High Throughput Screening” (PLoS ONE, 2015).
# Test: Circular dichroism (CD), secondary structure of aggregates
# Assay type: physicochemical
# Design: key: β+: has minimum near 217 nm; β++: has minimum near 217 nm and a maximum near 197 nm; −: signal too weak to interpret; ?: spectra not typical of any secondary structure
# Conditions: pH 4.0; pellet (25,000 g, 10 min) resuspended ~100 μg/ml in 10 mM NaOAc pH 4, crude peptide
# Method: The concept of creating an amyloid library out of a peptide library is only meaningful if the vast majority of the peptides actually form amyloids in at least one of the conditions tested. To establish the validity of our amyloid library we measured circular dichroism (CD), Fourier transform infrared spectroscopy (ATR-FTIR), as well as thioflavin T (ThT) fluorescence of peptides 1–33 at pH 7.3 (50 mM HEPES) and pH 4 (50 mM NaOAc) (see interactive Table A and associated data in S1 File). Based on the analysis of the CD and ATR-FTIR spectra (shown in the interactive Table A in S1 File) all the peptides formed β-structured aggregates in at least one condition. Most of the 33 peptides induced a significant increase in ThT fluorescence in at least one condition. […] The fibrils from a selection of the active peptides were aligned and analyzed by X-ray diffraction (Figures C and D in S1 File). In each case we observed the cross-β diffraction pattern typical of amyloid fibrils, although the degree of sample alignment varied. For two samples, 14 and 27, the difference in meridional and equatorial diffraction intensities was small but easily detected in a plot of the angular dependence of the intensity (Figure D in S1 File). The conclusion that can be drawn out of the multiple analysis techniques is that the 33 peptides that comprise the library are overwhelmingly prone to form fibril-like, β-structured aggregates. The cross-β diffraction of the tested aggregates would imply that they are more specifically all amyloidogenic.
# CD measurements were carried out on a Jasco J815. Samples were prepared by centrifuging the amyloid library at 25,000 g for 10 min and then removing the supernatant. The pellets were resuspended at an approximate concentration of 100 μg/ml in 10 mM HEPES pH 7.3 (for mixtures from 50 mM HEPES) or 10 mM NaOAc pH 4 (for mixtures from 50 mM NaOAc), the suspensions were then treated with an ultrasonic probe for 5 s, upon which the solutions were placed in 1 mm cuvettes, diluted as necessary to maintain the detector voltage below 600 V and scanned from 260–190 nm at 50 nm/min, 1 nm band-pass, 2 second integration, averaged over 3 repetitions.
# (§1) Table A and associated data: Biophysical characterization of library
# (§2) Sequence ThT1 CD2 FTIR3 EM4 ThT CD FTIR EM X-ray5 […]
# 2. […]
row,Substance,CD spectrum class
1,"Ac-YVDVHVDV-NH2 [Peptide 25, Ac-YVDVHVDV-CONH2]",β++
2,"Ac-YVAVHVHV-NH2 [Peptide 27, Ac-YVAVHVHV-CONH2]",−
3,"Ac-YVHVHVHV-NH2 [Peptide 8, Ac-YVHVHVHV-CONH2]",−
4,"Ac-YVSVHVHV-NH2 [Peptide 9, Ac-YVSVHVHV-CONH2]",−
5,"Ac-YVHVHVSV-NH2 [Peptide 11, Ac-YVHVHVSV-CONH2]",−

# Same assay, conditions: pH 7.3; pellet (25,000 g, 10 min) resuspended ~100 μg/ml in 10 mM HEPES pH 7.3, crude peptide
row,Substance,CD spectrum class
1,"Ac-YVDVHVDV-NH2 [Peptide 25, Ac-YVDVHVDV-CONH2]",−
2,"Ac-YVHVHVDV-NH2 [Peptide 21, Ac-YVHVHVDV-CONH2]",β+
3,"Ac-YVAVHVHV-NH2 [Peptide 27, Ac-YVAVHVHV-CONH2]",β+
4,"Ac-YVHVHVHV-NH2 [Peptide 8, Ac-YVHVHVHV-CONH2]",β+
5,"Ac-YVSVHVHV-NH2 [Peptide 9, Ac-YVSVHVHV-CONH2]",β++
6,"Ac-YVHVHVSV-NH2 [Peptide 11, Ac-YVHVHVSV-CONH2]",β++

# Test: Thioflavin T fluorescence (ThT)
# Assay type: physicochemical
# Conditions: pH 4.0, 50 mM NaOAc, crude peptide fibrillized at 160 μM, mixed 10:1 with 50 μM ThT, ex 440 nm em 480 nm
# Method: The samples of the amyloid library (50 mM HEPES pH 7.3 or 50 mM NaOAc pH 4) were mixed 10:1 with 50 μM ThT and the increase in fluorescence was measured in a 384-well plate in a BMG Pherastar platereader (ex: 440 nm em: 480 nm). The background signal from the peptides without ThT was subtracted from the one with the ThT present in the sample. Due to the large dynamic range of the signals among the many samples, the measurements were made at two different gain settings to ensure that all of the signals fell within the measureable range.
# as §1
# Sequence ThT1 CD2 FTIR3 EM4 ThT CD FTIR EM X-ray5
# 1. Fold increase in ThT ﬂuorescence over background. […]
row,Substance,"ThT, fold increase in ThT fluorescence over background"
1,"Ac-YVDVHVDV-NH2 [Peptide 25, Ac-YVDVHVDV-CONH2]",9 fold
2,"Ac-YVHVHVDV-NH2 [Peptide 21, Ac-YVHVHVDV-CONH2]",1 fold
3,"Ac-YVAVHVHV-NH2 [Peptide 27, Ac-YVAVHVHV-CONH2]",1 fold
4,"Ac-YVHVHVHV-NH2 [Peptide 8, Ac-YVHVHVHV-CONH2]",1 fold
5,"Ac-YVSVHVHV-NH2 [Peptide 9, Ac-YVSVHVHV-CONH2]",1 fold
6,"Ac-YVHVHVSV-NH2 [Peptide 11, Ac-YVHVHVSV-CONH2]",1 fold

# Same assay, conditions: pH 7.3, 50 mM HEPES, crude peptide fibrillized at 160 μM, mixed 10:1 with 50 μM ThT, ex 440 nm em 480 nm
row,Substance,"ThT, fold increase in ThT fluorescence over background"
1,"Ac-YVDVHVDV-NH2 [Peptide 25, Ac-YVDVHVDV-CONH2]",2 fold
2,"Ac-YVHVHVDV-NH2 [Peptide 21, Ac-YVHVHVDV-CONH2]",133 fold
3,"Ac-YVAVHVHV-NH2 [Peptide 27, Ac-YVAVHVHV-CONH2]",129 fold
4,"Ac-YVHVHVHV-NH2 [Peptide 8, Ac-YVHVHVHV-CONH2]",126 fold
5,"Ac-YVSVHVHV-NH2 [Peptide 9, Ac-YVSVHVHV-CONH2]",82 fold
6,"Ac-YVHVHVSV-NH2 [Peptide 11, Ac-YVHVHVSV-CONH2]",18 fold

# Test: ATR-FTIR, amide I peak of aggregates
# Assay type: physicochemical
# Design: key: indicates that no peak was observed within the typical range of stretching frequencies forβ-structure (between dashed lines at 1638 cm−1 and 1615 cm−1)
# Conditions: pH 4.0 (50 mM NaOAc), air-dried pellet, crude peptide
# Method: Samples were prepared as for the CD measurements, but instead of re-suspending the samples after centrifugation, 3 μl of H2O were added to the pellet so that it could be placed onto the diamond ATR cell of a Bruker Alpha-p ATR-FTIR spectrometer followed by air-drying before measuring the spectra. Blank subtraction was performed with an empty cell (air) and all measurements were performed without the pressure applicator.
# as §1, §2
# 3. The peak position in amide I region is given in cm−1. […]
row,Substance,FTIR peak position in amide I region
1,"Ac-YVDVHVDV-NH2 [Peptide 25, Ac-YVDVHVDV-CONH2]",1623 cm⁻¹
2,"Ac-YVHVHVDV-NH2 [Peptide 21, Ac-YVHVHVDV-CONH2]",−
3,"Ac-YVAVHVHV-NH2 [Peptide 27, Ac-YVAVHVHV-CONH2]",−
4,"Ac-YVHVHVHV-NH2 [Peptide 8, Ac-YVHVHVHV-CONH2]",−
5,"Ac-YVSVHVHV-NH2 [Peptide 9, Ac-YVSVHVHV-CONH2]",−
6,"Ac-YVHVHVSV-NH2 [Peptide 11, Ac-YVHVHVSV-CONH2]",−

# Same assay, conditions: pH 7.3 (50 mM HEPES), air-dried pellet, crude peptide
row,Substance,FTIR peak position in amide I region
1,"Ac-YVDVHVDV-NH2 [Peptide 25, Ac-YVDVHVDV-CONH2]",−
2,"Ac-YVHVHVDV-NH2 [Peptide 21, Ac-YVHVHVDV-CONH2]",1626 cm⁻¹
3,"Ac-YVAVHVHV-NH2 [Peptide 27, Ac-YVAVHVHV-CONH2]",1625 cm⁻¹
4,"Ac-YVHVHVHV-NH2 [Peptide 8, Ac-YVHVHVHV-CONH2]",1627 cm⁻¹
5,"Ac-YVSVHVHV-NH2 [Peptide 9, Ac-YVSVHVHV-CONH2]",1624 cm⁻¹
6,"Ac-YVHVHVSV-NH2 [Peptide 11, Ac-YVHVHVSV-CONH2]",1624 cm⁻¹

# Test: Transmission electron microscopy (TEM) of fibrils
# Assay type: physicochemical
# Design: key: +: ﬁbrils present; −: absent in EM micrographs
# Conditions: pH 4.0, 50 mM NaOAc, uranyl acetate stain
# Method: The samples of the amyloid library (50 mM HEPES pH 7.3 or 50 mM NaOAc pH 4) were applied directly to glow-discharged carbon-coated grids, washed and then stained with uranyl acetate. Images were recorded on a Philips CM 12 electron microscope.
# as §1, §2
# 4. (+) ﬁbrils present or (−) absent in EM micrographs. […]
row,Substance,"EM, fibrils in EM micrographs"
1,"Ac-YVDVHVDV-NH2 [Peptide 25, Ac-YVDVHVDV-CONH2]",+
2,"Ac-YVHVHVDV-NH2 [Peptide 21, Ac-YVHVHVDV-CONH2]",+
3,"Ac-YVHVHVHV-NH2 [Peptide 8, Ac-YVHVHVHV-CONH2]",−

# Same assay, conditions: pH 7.3, 50 mM HEPES, uranyl acetate stain
row,Substance,"EM, fibrils in EM micrographs"
1,"Ac-YVHVHVDV-NH2 [Peptide 21, Ac-YVHVHVDV-CONH2]",+
2,"Ac-YVAVHVHV-NH2 [Peptide 27, Ac-YVAVHVHV-CONH2]",+
3,"Ac-YVHVHVHV-NH2 [Peptide 8, Ac-YVHVHVHV-CONH2]",+
4,"Ac-YVSVHVHV-NH2 [Peptide 9, Ac-YVSVHVHV-CONH2]",+
5,"Ac-YVHVHVSV-NH2 [Peptide 11, Ac-YVHVHVSV-CONH2]",+

# Test: Plate reader 4NPA hydrolysis kinetics of purified peptide amyloids at pH 7.3
# Assay type: biochemical
# Conditions: 4NPA hydrolysis, pH 7.3 HEPES with zinc(II), 20 μM purified peptide, 0.1-1.0 mM 4NPA, 1% CH3CN, A400, Michaelis-Menten fit, per monomer peptide; triplicate (duplicate for 8, 27, 34, 35)
# Method: The reaction buffer consisted of the same buffer as the fibrillization buffer without ZnCl2 and with 1.33 mM 4NPA prepared from a 100 mM stock in CH3CN. The samples of the amyloid library were mixed 1:3 with the reaction buffer yielding 40 μM peptide and, when present 250 μM zinc(II). The absorbance measurements were performed in a BMG Pherastar platereader with a 400 nm band-pass filter (10 nm bandwidth) in 96-well Nunclon Delta surface plates or 384-well Greiner Bio-One non-bind black μclear plates.
# The kinetics assays performed on the purified peptides were prepared similarly except that the peptide concentration was 20 μM in the reaction. Furthermore, the various substrate concentrations and replicate samples were randomly distributed over the plate to minimize systematic errors. Various 4NPA concentrations (i.e. 0.1 mM, 0.2 mM, 0.4 mM, 0.6 mM, 1.0 mM) were added from a 100 times stock so that the final CH3CN concentration was always 1%. The linear part of the hydrolysis activity was fit with an extinction coefficient of ε = 9700 M^-1cm^-1 and corrected for the background reaction rate of buffer alone (v bg = 5.0 × 10^-6 Ms^-1) to obtain the initial reaction rate v 0. The average of the initial reaction rates at each substrate concentration were then fit to the Michaelis-Menten type kinetics to obtain k cat, K M and k cat/K M always calculated per monomer peptide. The background reaction rate was obtained similarly using 5 replicates.
row,Substance,k cat/K M
1,"Ac-YVHVHVDV-NH2 [Peptide 21, Ac-YVHVHVDV-CONH2]",0.473 ± 0.046 M⁻¹ s⁻¹
2,"Ac-YVAVHVHV-NH2 [Peptide 27, Ac-YVAVHVHV-CONH2]",4.26 ± 0.13 M⁻¹ s⁻¹
3,"Ac-YVHVHVHV-NH2 [Peptide 8, Ac-YVHVHVHV-CONH2]",2.288 ± 0.077 M⁻¹ s⁻¹
4,"Ac-YVSVHVHV-NH2 [Peptide 9, Ac-YVSVHVHV-CONH2]",1.461 ± 0.094 M⁻¹ s⁻¹
5,"Ac-YVHVHVSV-NH2 [Peptide 11, Ac-YVHVHVSV-CONH2]",6.29 ± 0.52 M⁻¹ s⁻¹

# Same assay, conditions: 4NPA hydrolysis, pH 7.3 HEPES with zinc(II), 20 μM purified peptide, Michaelis-Menten fit
row,Substance,K M
1,"Ac-YVHVHVDV-NH2 [Peptide 21, Ac-YVHVHVDV-CONH2]",1230 ± 320 µM
2,"Ac-YVAVHVHV-NH2 [Peptide 27, Ac-YVAVHVHV-CONH2]",7200 ± 2100 µM
3,"Ac-YVHVHVHV-NH2 [Peptide 8, Ac-YVHVHVHV-CONH2]",2390 ± 320 µM
4,"Ac-YVSVHVHV-NH2 [Peptide 9, Ac-YVSVHVHV-CONH2]",3710 ± 390 µM
5,"Ac-YVHVHVSV-NH2 [Peptide 11, Ac-YVHVHVSV-CONH2]",870 ± 150 µM

# Same assay, conditions: 4NPA hydrolysis, pH 7.3 HEPES with zinc(II), 20 μM purified peptide, Michaelis-Menten fit, per monomer peptide
row,Substance,k cat
1,"Ac-YVHVHVDV-NH2 [Peptide 21, Ac-YVHVHVDV-CONH2]",0.059±0.010 10^-2s^-1
2,"Ac-YVAVHVHV-NH2 [Peptide 27, Ac-YVAVHVHV-CONH2]",3.05±0.80 10^-2s^-1
3,"Ac-YVHVHVHV-NH2 [Peptide 8, Ac-YVHVHVHV-CONH2]",0.547±0.056 10^-2s^-1
4,"Ac-YVSVHVHV-NH2 [Peptide 9, Ac-YVSVHVHV-CONH2]",0.544±0.048 10^-2s^-1
5,"Ac-YVHVHVSV-NH2 [Peptide 11, Ac-YVHVHVSV-CONH2]",0.514±0.051 10^-2s^-1
